Entries after “also recorded” stand apart in the source; their conditions may differ. Like-named read-outs stand apart in the source and are kept apart here. Values belong to the compound of their own block, whether it stands above or below them.
Experiments:
[1] = target: brain NOS (cerebellar NOS) (Rattus norvegicus, UniProt P29476); experiment: inhibition of NOS activity, conversion of [^3 H]arginine to [^3 H]citrulline, cerebellar homogenates/supernatants in vitro; conditions: for inhibition of brain NOS, in words: guanidinoalkanoic acid series
brain NOS (cerebellar NOS), sequence (P29476 whole entry): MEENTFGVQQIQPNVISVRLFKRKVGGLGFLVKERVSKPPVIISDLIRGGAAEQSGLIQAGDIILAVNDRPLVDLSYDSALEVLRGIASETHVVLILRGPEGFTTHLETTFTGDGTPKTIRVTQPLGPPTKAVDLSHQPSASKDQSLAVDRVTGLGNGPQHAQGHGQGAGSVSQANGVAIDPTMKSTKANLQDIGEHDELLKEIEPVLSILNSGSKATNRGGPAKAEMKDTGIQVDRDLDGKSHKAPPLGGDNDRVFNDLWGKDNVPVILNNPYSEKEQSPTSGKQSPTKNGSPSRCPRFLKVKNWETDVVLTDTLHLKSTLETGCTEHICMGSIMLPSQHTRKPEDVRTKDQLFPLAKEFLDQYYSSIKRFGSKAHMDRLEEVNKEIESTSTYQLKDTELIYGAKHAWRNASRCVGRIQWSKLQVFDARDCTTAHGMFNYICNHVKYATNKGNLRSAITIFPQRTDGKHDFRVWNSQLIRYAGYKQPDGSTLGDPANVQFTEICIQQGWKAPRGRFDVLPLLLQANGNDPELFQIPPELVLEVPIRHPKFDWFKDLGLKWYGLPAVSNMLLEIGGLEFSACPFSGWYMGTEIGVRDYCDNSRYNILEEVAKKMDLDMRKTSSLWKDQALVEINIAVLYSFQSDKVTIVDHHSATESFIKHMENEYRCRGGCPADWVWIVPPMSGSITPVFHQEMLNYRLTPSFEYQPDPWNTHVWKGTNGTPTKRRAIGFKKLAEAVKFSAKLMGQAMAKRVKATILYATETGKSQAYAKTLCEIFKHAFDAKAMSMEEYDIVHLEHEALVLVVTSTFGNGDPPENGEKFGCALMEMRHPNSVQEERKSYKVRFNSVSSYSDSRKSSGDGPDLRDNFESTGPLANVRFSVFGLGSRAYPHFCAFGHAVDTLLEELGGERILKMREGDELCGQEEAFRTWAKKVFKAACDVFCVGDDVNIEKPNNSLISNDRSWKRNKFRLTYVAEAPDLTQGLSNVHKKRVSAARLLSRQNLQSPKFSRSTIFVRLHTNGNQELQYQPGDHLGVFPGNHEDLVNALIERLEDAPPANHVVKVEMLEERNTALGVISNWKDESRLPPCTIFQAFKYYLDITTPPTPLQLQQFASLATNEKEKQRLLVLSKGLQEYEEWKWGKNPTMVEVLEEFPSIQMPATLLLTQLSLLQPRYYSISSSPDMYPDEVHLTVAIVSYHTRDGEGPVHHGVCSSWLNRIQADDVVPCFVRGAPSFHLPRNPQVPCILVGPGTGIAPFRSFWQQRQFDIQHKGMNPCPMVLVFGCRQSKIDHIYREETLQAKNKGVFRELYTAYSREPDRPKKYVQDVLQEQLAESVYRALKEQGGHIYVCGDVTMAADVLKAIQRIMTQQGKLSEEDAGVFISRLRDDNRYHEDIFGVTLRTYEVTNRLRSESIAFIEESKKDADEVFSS
Description: (§1) Inhibitors of NOS are compounds which compete for the substrate binding site of NOS or other sites on the enzyme, and include both reversible and irreversible inhibitors. The present invention contemplates the use of any physiologically acceptable inhibitor which inhibits NOS activity. The effectiveness of a compound, and its relative potency as an NOS inhibitor, can be tested and routinely determined by measuring inhibition of NOS activity by monitoring the conversion of arginine to citrulline by NOS in, for example, cerebellar homogenates. A reduction in citrulline formation indicates inhibitory activity of the compound. The percent reduction in citrulline formation, compared to the amount of citrulline formed in the absence of the compound being tested, indicates the potency of the compound as an NOS inhibitor.
Rat cerebella were homogenized in 10 vols. (w/v) […] Tris (pH 7.4), 2 mM EDTA. Homogenates were centrifuged at 10,000×g for 15 minutes at 4° C. Supernatant preparations were used in the enzyme assays. Cerebellar tissue was dialyzed (Spectra/Por, 10,000 MWCO, EDTA-treated cellulose dialysis tubing) against 20 mM Tris (pH 7.4), 2 mM EDTA (300 ml×2) for 24 hours at 4° C.
Cerebellar homogenates were incubated with arginine derivatives for one hour at 4° C., and dialyzed overnight. Aliquots (25 μg protein) were assayed for NOS activity before and after dialysis.
(§2) NOS activity was measured by monitoring the conversion of [^3 H]arginine to [^3 H]citrulline as described by Bredt and Snyder (Proc. Natl. Acad. Sci USA (1990) 87682-685). Briefly, enzyme assays contained 25 μl of soluble tissue, 50 μl of […] [^3 H]arginine and 1 mM NADPH, and 25 μl of 3 mM CaCl2. After a 15 minute incubation at room temperature, the assays were terminated with 3 ml of 20 mM Hepes (pH 5.5) with 2 mM EDTA, and were applied to 0.5 ml columns of Dowex AG50WX8 (Na^+ form). [^3 H]citrulline was quantified by liquid scintillation spectroscopy of the 3 ml flow-through.
(§3) Accordingly, the effects of 2, 4 and 24 hours of preincubations of cerebellar supernatants (FIG. 2A) and activated macrophage homogenates (FIG. 2B) with NO2 Arg were examined. The preincubation was conducted at 4° C. since NOS is unstable at higher temperature for long periods of time. Enzymatic incubation was conducted for only 5 minutes to minimize any reaction of the inhibitor with the enzyme in the course of the incubation procedure.
Cerebellar supernatants were made as described in Example 1.

[2] = tested on: macrophage NOS (activated macrophage homogenates); experiment: inhibition of NOS activity in activated macrophage homogenates in vitro; type: biochemical; conditions: guanidinoalkanoic acid series
Description: as §1, §2, §3
Macrophages were activated as described by Tayeh and Marletta (J. Biol. Chem. (1989) 264:19654-19658) with 3.5 ng/ml LPS from E. coli and 5 units/ml recombinant murine γ-interferon for 24 hours at 37° C. Cells were homogenized in 20 mM Hepes (pH 7.4).

[3] = tested on: brain or macrophage enzyme (NOS); experiment: NOS inhibition and brain/macrophage selectivity of arginine, nitroarginine and guanidinoalkanoic acid analogs; type: biochemical
cortical cell cultures [4] = experiment: cells; type: cell-based, rat; conditions: for reversal of NO2 Arg protection from NMDA cytotoxicity: L-Arg 1 mM with 100 μM NO2 Arg, homoarginine, D-Arg, FIG. 7; for EC50: cortical cultures; for effect on NMDA-induced cell death: 300 μM NMDA (with 10 μM glycine), Hb at 500 μM; for effect on SNP-induced cell death: Hb 500 μM
Description: Primary dissociated cell cultures were prepared from fetal rats (13-to 14-day gestation for cortex and caudate-putamen cultures and 19- to 20-day gestation for hippocampal cultures). The tissue of interest was dissected, incubated for 15 minutes in 0.027% trypsin in Brooks-Logan solution (5% phosphate-buffered saline/0.04M sucrose/10 mM Hepes/0.03M glucose, pH 7.4), and then transferred to modified Eagle's medium (MEM) 10% horse serum/10% fetal bovine serum/2 mM glutamine for trituration. Dissociated cells were plated at a density of 3-4×10^5 cells per well in polyornithine-coated 15-mm multiwell plates. After 4 days the cells were treated with 10 μg of 5-fluoro-2'-deoxyuridine to prevent proliferations of noneuronal cells. Cells were maintained in MEM/5% horse serum/2 mM glutamine in 8% CO2 /humidified atmosphere at 37° C. The medium was changed twice weekly. Mature neurons (3-4 weeks) were used.
Cells were exposed to excitatory amino acids according to the method of Koh and Choi (J. Neurosci. (1988) 8:2153-2163). Before exposure, the cells were washed three times with Tris-buffered control salt solution (CSS), containing 120 mM NaCl/5.4 mM KCl/1.8 mM CaCl2 /25 mM Tris hydrochloride, pH 7.4 at room temperature/15 mM glucose. Brief exposures to glutamate, NMDA (plus 10 μM glycine), quisqualate, and sodium nitroprusside (SNP) were performed for 5 minutes in CSS. The exposure solution was then washed away and replaced by MEM with 21 mM glucose; then the cells were placed in an incubator for 20-24 hour. Long exposures to kainate were performed in MEM/21 mM glucose for 20-24 hour in the incubator. After exposure to the excitatory amino acids, the medium was replaced by CSS/0.4% trypan blue, which stains nonviable cells. Two to four photographs (10-20×) were made of each well, and viable versus nonviable cells were counted. The cytotoxicity data represent 6-24 separate wells assayed per data point, with ≈500-1500 cells counted per well. Neuronal cell injury was also assessed by measuring the release of lactate dehydrogenase by damaged or destroyed cells into the extracellular fluid following drug exposure.
Before initiating cytotoxicity experiments with NOS inhibitors, the potency of NMDA applied for 5 minutes in inducing cell death was evaluated by examining exclusion of 0.4% trypan blue by viable cells or measuring lactate dehydrogenase released by damaged or destroyed cells into the extracellular fluid.
To examine the role of NO in other forms of glutamate neurotoxicity, the effects of NO2 Arg cytotoxicity induced by quisqualate, kainate, and NMDA were compared. […] Data are means ±SEM (n=6-24). Cell death was determined by 0.4% trypan blue exclusion by viable cells.

NOS = conditions: cited from earlier work
cGMP formation = cGMP formation in cortical cell cultures (RIA); type: cell-based, rat; conditions: for effect on NMDA stimulation of cGMP formation: 300 μM NMDA (plus 10 μM glycine), 1 minute, 100 μM NO2 Arg, 1 mM L-Arg, 100 units of SOD, 500 μM Hb
Description: Primary dissociated cell cultures were prepared from fetal rats (13-to 14-day gestation for cortex and caudate-putamen cultures and 19- to 20-day gestation for hippocampal cultures). […] Dissociated cells were plated at a density of 3-4×10^5 cells per well in polyornithine-coated 15-mm multiwell plates. After 4 days the cells were treated with 10 μg of 5-fluoro-2'-deoxyuridine to prevent proliferations of noneuronal cells. Cells were maintained in MEM/5% horse serum/2 mM glutamine in 8% CO2 /humidified atmosphere at 37° C. The medium was changed twice weekly. Mature neurons (3-4 weeks) were used.
For determination of cGMP the cells were washed three times with CSS. […] After ether extraction, cGMP levels were determined by RIA.
Data are means ±SEM (n=6-8).
Data are means ±SEM (n=8-12).

cortical cell cultures [5] = conditions: Koh et al. (1990); cited from earlier work

inhibition of brain NOS, in words [1]: inactive against the brain NOS | inhibition of macrophage enzyme, in words [2]: potent inhibitors
Compound: N=C(N)NCCCCC(=O)O [5-GPA, 5-guanidinopentanoic acid]
selectivity between brain and macrophage enzyme, in words [3]: good selectivity toward the macrophage enzyme

inhibition of brain NOS, in words [1]: inactive against the brain NOS | inhibition of macrophage enzyme, in words [2]: potent inhibitors
Compound: N=C(N)NCCCCCC(=O)O [6-GHA, 6-guanidinohexanoic acid]
selectivity between brain and macrophage enzyme, in words [3]: good selectivity toward the macrophage enzyme

Compound: N=C(N)NCCC[C@@H](N)C(=O)O [D-Arg, D-arginine]
reversal of NO2 Arg protection from NMDA cytotoxicity (cortical cell cultures [4]): much weaker than L-Arg; also recorded: comparable to that obtained with 10 μM L-Arg

Compound: N=C(N)NCCCC[C@H](N)C(=O)O [Homoarginine, homoarginine]
reversal of NO2 Arg protection from NMDA cytotoxicity (cortical cell cultures [4]): reverses effects of NO2 Arg but is less potent than L-Arg | affinity for NOS (NOS; Knowles et al. (1989)): less affinity for NOS than L-Arg

Compound: N=C(N)NCCC[C@H](N)C(=O)O [L-Arg, L-arginine]
effect on NMDA stimulation of cGMP formation (cGMP formation): competitively reversible by L-Arg | reversal of NO2 Arg protection from NMDA cytotoxicity (cortical cell cultures [4]): reverses the inhibition by 100 μM NO2 Arg | reversal of NO2 Arg protection from NMDA cytotoxicity (cortical cell cultures [4]; listed as L-arginine): competitively reversed by L-arginine | reversal of NO2 Arg protection from NMDA cytotoxicity (cortical cell cultures [4]; listed as L-arginine (L-Arg)): completely reverses the effect of NO2 Arg | concentration required to obtain maximal NMDA effects (cortical cell cultures [4]; graded L-Arg added to L-Arg-free medium): 100 µM | protection against quisqualate-induced cell death (cortical cell cultures [4]; quisqualate): reversal by L-Arg

Compound: CNC(=N)NCCC[C@H](N)C(=O)O [MeArg, L-N^ω -monomethylarginine]
relative potency as inhibitor of NOS activity ([1]; cerebellar supernatant preparations, FIG. 1): NO2 Arg is a more potent inhibitor of NOS activity than MeArg | prevention of neurotoxicity, in words (cortical cell cultures [4]): prevent neurotoxicity in proportion to their relative potencies as NOS inhibitors | EC50 (cortical cell cultures [4]; Rattus norvegicus, NMDA and related excitatory amino acids, read-out: EC50 for preventing neurotoxicity elicited by N-methyl-D-aspartate): 170 µM | EC50 (cortical cell cultures [4]; Rattus norvegicus, NMDA, read-out: concentration giving 50% prevention of NMDA-induced cell death): 170 µM | Ki (NOS; Dwyer et al. (1991), read-out: Ki, inhibition of NOS activity of purified enzyme preparations): 2 µM

Compound: CN[C@H](CC(=O)O)C(=O)O [NMDA, N-methyl-D-aspartate]
CC50 (cortical cell cultures [4]; Rattus norvegicus, 5 min, read-out: toxic LD50): 280 µM | cytotoxicity at 300 µM (cortical cell cultures [4]; Rattus norvegicus, 5 min, 300 μM, 5 minutes, read-out: cell death at 300 μM NMDA): 60% | cytotoxicity at 300 µM (cortical cell cultures [4]; Rattus norvegicus, 300 μM NMDA + 10 μM glycine alone, read-out: Cell death, % ± SEM (NMDA)): 57.8 ± 2.6% | CC50 (cortical cell cultures [4]; Rattus norvegicus, arginase-treated preparations / L-Arg-free medium, read-out: 50% lethal concentration): 7500 µM | increase of the 50% lethal concentration of NMDA (cortical cell cultures [4]; arginase-treated preparations / L-Arg-free medium): > 20 fold

Compound: N[C@@H](CCC(=O)O)C(=O)O [glutamate]
Cell death, % ± SEM (glutamate) (cortical cell cultures [4]; 500 μM glutamate alone): 48.4 ± 4.4%

Compound: C=C(C)[C@H]1CN[C@H](C(=O)O)[C@H]1CC(=O)O [kainate]
cytotoxicity at 100 µM (cortical cell cultures [4]; Rattus norvegicus, read-out: Cell death, % ± SEM (kainate)): 81.4 ± 7.1% | neurotoxic action relative to NMDA (cortical cell cultures [5]): act more slowly and less potently than NMDA

Compound: N[C@@H](Cn1oc(=O)[nH]c1=O)C(=O)O [quisqualate]
cytotoxicity at 500 µM (cortical cell cultures [4]; Rattus norvegicus, 500 μM quisqualate alone, read-out: Cell death, % ± SEM (quisqualate)): 64.2 ± 3.7% | neurotoxic action relative to NMDA (cortical cell cultures [5]): act more slowly and less potently than NMDA

Compound: Hb: reduced hemoglobin (Hb), which binds NO
effect on NMDA stimulation of cGMP formation (cGMP formation): antagonized | effect on cGMP levels in cortical cells (SNP) (cGMP formation; SNP, 1-minute exposure): blocked by Hb; also recorded: completely reverses SNP-mediated cytotoxicity and cGMP formation | effect on NMDA-induced cell death (cortical cell cultures [4]): completely prevents NMDA-induced cell death; also recorded: reverses cell death | effect on NMDA-induced cell death (cortical cell cultures [4]; listed as Hemoglobin): prevents neurotoxic effects of both N-methyl-D-aspartate and sodium nitroprusside | effect on SNP-induced cell death (cortical cell cultures [4]): completely prevents SNP-induced cell death; also recorded: completely reverses SNP-mediated cytotoxicity | effect on SNP-induced cell death (cortical cell cultures [4]; listed as Hemoglobin): prevents neurotoxic effects of both N-methyl-D-aspartate and sodium nitroprusside

— patent US5266594A, “Inhibitors of nitric oxide synthase and use thereof to prevent glutamate neurotoxicity” (priority 1992, dated 1993)
